Laboratory results published in patent US9426996B2, “Use of benzoxaboroles as volatile antimicrobial agents on meats, plants, or plant parts” (AgroFresh Inc., priority 2013, dated 2016).

Key:
Alternaria alternata = experiment: combination treatment with 1-MCP on tomato; assay type: in vivo; conditions: tomatoes
Experimental: Each tomato fruit is wounded three times and inoculated with 1×10^6 spores/mL of Alternaria alternata and then placed in a 117 L Rubbermaid storage box (Cat #2244) with two small fans placed in opposite ends of the container. A 1000 ppb v/v 1-MCP treatment is applied (AgroFresh, Springhouse, Pa.) for 24 hours at 21° C. After completion of the 1-MCP treatment, the tomatoes are removed and placed in a 10.8-cup […] airtight container (Model #109842). […] The tomatoes are incubated for three days at 21° C., then evaluated for an additional three days at 21° C. for disease incidence and severity. Results listed in Table 29 show good activity against Alternaria alternata infection of tomato.

Penicillium expansum [1] = experiment: in vitro contact fungicide assay (amended PDA); assay type: cell-based; conditions: three days at 23° C.
Experimental: (§1) In order to assess the activity of Compound A as a contact fungicide, an in vitro assay is developed. A 6 cm-diameter Petri plate is used. Compound A is amended into full-strength Potato Dextrose Agar (PDA) to achieve a final solution concentration of 10, 2, 0.4, or 0.08 mg/L, and 15-mL volume of solution is added to each plate. After cooling, 1 μL of 1×10^5 per mL Penicillium expansum or Penicillium digitatum spore suspension is spot-pipetted into the center of the agar.
(§2) Plates are sealed with a parafilm and placed in an incubator held at 23° C. After three days of storage, the cultures are evaluated for percent growth relative to control based on measurement of fungal colony diameter.

Penicillium digitatum = experiment: in vitro contact fungicide assay (amended PDA); assay type: cell-based; conditions: three days at 23° C.
Experimental: as §1, §2

Xanthomonas axonopodis = experiment: in vitro volatile assay, minimum bactericidal concentration (Example 11); assay type: cell-based; conditions: headspace concentration; 23° C. for 48 hours
Experimental: (§3) 12-Well (6.5 mL volume per well) microtiter plates are used for the in vitro inhibition assay for volatile antimicrobial Compound A (FIG. 1) against numerous bacterial pathogens. A 3-mL volume of Nutrient agar is added to each well and allowed to dry before introducing the pathogen. Escherichia coli, Pectobacterium carotovorum, Xanthomonas axonopodis and Salmonella enterica cell suspensions are adjusted to an optical density of 0.2 to 0.35, and further diluted 1/10, and 15 μL is pipetted to the center of each well and tilted to distribute uniformly. A Whatman #1 filter paper (CAT 1001-0155) is placed on the underside of a polyethylene PCR plate sealing film. […] The films with the treated disks are then applied over the inoculated plates and sealed. Plates are inverted, and incubated at 23° C. for 48 hours. After the incubation period, the bacteria colonies are dislodged in sterile water containing tween 80 (0.001%) and the optical density (OD; 600 nm) is determined Results are summarized in Table 10, where the headspace concentration required to control at least 80% of bacterial growth is reported.

[2] = test system: Pectobacterium carotovorum; experiment: as above; assay type: cell-based; conditions: headspace concentration; 23° C. for 48 hours
Experimental: as §3

Penicillium expansum [3] = experiment: in vivo sublimation bioassay on fruit, 10 mg/L (Example 22); conditions: 10 mg/L sublimed, three day treatment plus three days at 21° C.
Experimental: To assess the in vivo activity of volatile antimicrobial Compound A (FIG. 1) in fruit, a volatile bioassay is developed using apple, pear, orange, strawberry, grape and blueberry. Two apples, 2 oranges, 2 pears, 8 strawberries, 16 grapes or 30 blueberries (per replicate, in duplicate) are placed in a clamshell with the stem end facing up for all fruits except for strawberry (stem end facing downwards). A fresh wound is inoculated with 20 μL 1×10^6 per mL Penicillium expansum spore suspension (apple and pear), 20 μL 1×10^6 per mL Penicillium digitatum spore suspension (orange), and 20 μL (strawberry and grape) or 10 μL (blueberry) of 1×10^6 per mL Botrytis cinerea spore suspension. The clamshells are placed inside a 117 L Rubbermaid storage box (Cat #2244) with lids closed. Compound A, dissolved in acetone, is pipetted onto a cotton strip, where the acetone is allowed to evaporate for five minutes, and then introduced into the container by a sublimation device (copper tube heated to 200° C. with fan flow at 0.5 L/min) to achieve a final headspace concentration of 10 mg/L. The containers are then held for three days at 21° C. After treatment, fruits are held for an additional three days at 21° C., then evaluated for disease incidence (mm diameter of browning or water-soaked lesions) and pathogen sporulation (mm diameter) for apple, pear and orange, as well as Botrytis cinerea disease incidence (%) and severity (0 to 4) for strawberry, grape and blueberry, with results summarized in Table 21.

[4] = test system: Pectobacterium carotovorum; experiment: in vivo volatile assay on potato, onion and carrot cubes; conditions: 50 mg/L; for Log CFU/mL: 10 C for four days
Experimental: To test the effect of Compound A at controlling bacterial pathogens of vegetables, potato, onion and carrot are chopped into small cubes and surface sterilized with 0.825% NaOCl and allowed to dry. Four small cubes (approximately […]) of each vegetable are placed in a sterile Petri plate. Each cube is inoculated with 25 μL of Pectobacterium carotovorum (bacterial concentration of OD 1.0, 600 nm). […] No. 1001-042) attached to the inner side of the lid. The acetone is permitted to evaporate for five minutes before closing the plate and sealing it with parafilm. The vegetables are incubated at 10 C for four days.

Botrytis cinerea = experiment: in vivo volatile assay on onion leaves; conditions: 10 mg/L, 21° C. for 3 days
Experimental: To test the effect of Compound A (FIG. 1) on vegetables, potato, onion and squash were obtained from a local store, and the surface sterilized with 0.825% sodium hypochlorite (NaOCl). A slice of potato or two leaves of onion were placed in a sterile Petri plate, while whole squash were placed in a sterile 10.8-cup SnapWare airtight container (Model #109842). Each slice of potato was inoculated with 20 μL of a 1×10^5 spores/mL Fusarium sambucinum suspension, while onions were inoculated with 20 μL of a 1×10^6 spores/mL Botrytis cinerea suspension. For inoculation of squash, a small core was removed, and a mycelial plug of Phytophthora capsici was inserted and capped with the core. Compound A was diluted in acetone, and added to a 42.5 mm Whatman #1 filter disk (Cat. No. 1001-042) attached to the inner side of the lid at a rate to achieve a final headspace concentration of 10 mg/L. The acetone was permitted to evaporate for 5 minutes before parafilm sealing the plates or closing the airtight containers. The vegetables were incubated at 21° C. for 3 days, and evaluated for mycelial growth, dry rot, and water-soaked appearance (mm diameter) with results summarized in Table 13.

In the case of OB1OCc2cc(F)ccc21 [Compound A], the “Diameter of the rot (mm)” value (Alternaria alternata; 0.4 mg/L) is reported as 3.8 mm, the “Diameter of the rot (mm)” value (Alternaria alternata; 2 mg/L) is reported as 0.0 mm and the “Incidence (%) P. expansum” value (Penicillium expansum [1]; 0.08 mg/L) is reported as 93.1%. For the same compound, the “Incidence (%) P. expansum” value (Penicillium expansum [1]; 0.4 mg/L) was 33.0%, the “Incidence (%) P. expansum” value (Penicillium expansum [1]; 2 mg/L) was 0.0% and the “Incidence (%) P. expansum” value (Penicillium expansum [1]; 10 mg/L) was 0.0%. For the same compound, the “Incidence (%) P. digitatum” value (Penicillium digitatum; 0.08 mg/L) was 42.0%, the “Incidence (%) P. digitatum” value (Penicillium digitatum; 0.4 mg/L) was 12.5% and the “Incidence (%) P. digitatum” value (Penicillium digitatum; 2 mg/L) was 0.0%. The “Incidence (%) P. digitatum” value (Penicillium digitatum; 10 mg/L) was 0.0%, the “Rate (mg/L) offering at least 80% control, X. axonopodis” value (Xanthomonas axonopodis) was 4.5 mg/L and the “Rate (mg/L) offering at least 80% control, P. carotovorum” value [2] was 2.2 mg/L. For the same compound, the “Browning (mm)” value (Penicillium expansum [3]; Apple) was 5.4 mm, the “Sporulation (mm)” value (Penicillium expansum [3]; Apple) was 0 mm and the “Browning (mm)” value (Penicillium expansum [3]; Pear) was 2.7 mm. The “Sporulation (mm)” value (Penicillium expansum [3]; Pear) was 0 mm, the Log reduction ([4]; Carrot) was 0.29 log and the “Log CFU/mL” value ([4]; Carrot) was 6.06 Log CFU/mL. For the same compound, the Log reduction ([4]; Onion) was 2.14 log, the “Log CFU/mL” value ([4]; Onion) was 5.99 Log CFU/mL and the Log reduction ([4]; Potato) was 0.84 log. The “Log CFU/mL” value ([4]; Potato) was 6.63 Log CFU/mL and the Water soaked (Botrytis cinerea) was 0 mm.
